{
  "source": "patent US20140106387A1",
  "about": "“METHOD FOR CONTROLLING NAD(P)/NAD(P)H RATIO BY OXIDOREDUCTASE” (MD BIOALPHA CO., LTD., priority 2006, published 2014)",
  "key": {"HepG2 cells [1]": {"tested_on": "HepG2 cells", "assay": "calcium influx (Fluo-4) in HepG2 cells", "format": "cell-based, human", "settings": "dicoumarol 5 μM pretreated 30 min", "procedure": "Cells were grown on a coverslip in a culture medium for 24 hours, maintained in an RPMI 1640 serum-free medium for 1 hour, and pretreated with a calcium indicator Fluo-4 (5 μM) for 30 min. After pretreatment, the coverslip was mounted on a slide glass. Changes in an intracellular calcium concentration were observed using a fluorescence microscope (Carl Zeiss) for 30 sec, and cells were treated with a candidate compound (e.g. pyran-1,2-naphthoquinone) simultaneously with consecutive imaging of calcium changes using a fluorescence microscope (Carl Zeiss) for 2 sec. […] Changes in the intracellular calcium concentration were observed using a fluorescence microscope (Carl Zeiss) for 30 sec, and cells were treated with pyre-1,2-naphthoquinone (10 μM), followed by continuous shooting of calcium changes using a fluorescence microscope for 2 sec. Using an LSM Image Browser program (Carl Zeiss), 300 images taken for 10 min every 2 seconds were sorted and ordered in a time sequence and plotted on a graph.\nFor determination of the inner mitochondrial membrane potential (ΔΨm), 20 nM of TMRE (tetramethylrhodamine ethyl ester) as a fluorescent indicator was continuously applied to be loaded on cells. In order to monitor mitochondrial Ca^2+, cells on glass coverslips were loaded with 10 μM Rhod-2 AM via cold loading/warm incubation. In order to monitor cytosolic Ca^2+, cells were co-loaded with 10 μM Fluo-4 AM at 37′C for 30 min. […] Images for TMRE (red fluorescence), Rhod-2 (red fluorescence) and Fluo-4 (green fluorescence) were obtained using an inverted Zeiss 510META laser-scanning confocal microscope equipped with ×63 numerical aperture, 1.4 oil-immersion planapochromat lens. Green fluorescence and red fluorescence were illuminated with light of 488 nm and 543 nm. […]\nCells were cultured for 24 hours and then pre-treated with Fluo-4 for 30 min. Cells immobilized on a coverslip were transferred to a slide glass and treated with pyrano-1,2-naphthoquinone (10 μM), and at the same time images were taken every 2 seconds for 10 min using a fluorescence microscope."}, "HepG2 cells [2]": {"tested_on": "HepG2 cells", "assay": "mitochondrial membrane potential (TMRE fluorescence) in HepG2 cells", "format": "cell-based, human", "settings": "dicoumarol-treated cells", "procedure": "For determination of the inner mitochondrial membrane potential (ΔΨm), 20 nM of TMRE (tetramethylrhodamine ethyl ester) as a fluorescent indicator was continuously applied to be loaded on cells. In order to monitor mitochondrial Ca^2+, cells on glass coverslips were loaded with 10 μM Rhod-2 AM via cold loading/warm incubation. In order to monitor cytosolic Ca^2+, cells were co-loaded with 10 μM Fluo-4 AM at 37′C for 30 min. The cells were washed twice with a KB solution, and mounted in a perfusion chamber. Fluorescent imaging was taken using a confocal laser scanning microscope (LSM-510 META, Carl Zeiss) at a magnification of ×200 and ×400, in conjunction with appropriate laser lines and a filter set. Image analysis was carried out using LSM-510 META software (Zeiss). Images for TMRE (red fluorescence), Rhod-2 (red fluorescence) and Fluo-4 (green fluorescence) were obtained using an inverted Zeiss 510META laser-scanning confocal microscope equipped with ×63 numerical aperture, 1.4 oil-immersion planapochromat lens. Green fluorescence and red fluorescence were illuminated with light of 488 nm and 543 nm. Incident light was passed through a 545 nm dichroic mirror and observed via a 500 to 530 nm band-pass (green) filter and a 560 nm long-pass (red) barrier filter.\nHowever, such effects were not observed in HEK293 cells. […]"}},
  "data": [
    {"smiles": "O=c1oc2ccccc2c(O)c1Cc1c(O)c2ccccc2oc1=O", "note": "[dicoumarol, reference compound]", "values": [
      {"measurement": "effect on calcium influx by pyrano-1,2-naphthoquinone", "setting": "HepG2 cells [1]", "result": "inhibited"},
      {"measurement": "effects of βL on ΔΨm in dicoumarol-treated cells", "setting": "HepG2 cells [2]", "result": "did not exhibit such effects"}
    ]}
  ]
}
